These results are taken from patent US4087390A, “Somatostatin analogs and intermediates thereto” (Eli Lilly and Company, priority 1977, dated 1978).

Bridge positions count the residues as written; N and C are the ends. Square brackets hold non-standard residues; d marks the D form. Peptide text beside a SMILES is read from it.

One experiment relates to gut motility. In words: action on gut motility in conscious dogs (intralumenal pressure). The experiment is classed as in vivo. Here is the method: D-Val^2, D-Trp^8 -somatostatin also was tested for its action on gut motility in conscious dogs. Three dogs having intralumenal catheters placed in the antrum, duodenum, and pylorus were used. Pressure changes in the gut lumen were recorded on a Visicorder using strain gauges and miniature light beam galvanometers. After a steady state control was established, D-Val^2, D-Trp^8 -somatostatin was infused intravenously over a ten minute period. […] The minimum effective dose required to increase the pyloric pressure and to decrease the duodenum and antrum pressures was >0.125 to <0.25 μg./kg.-10 minutes.

The test system of another experiment is growth hormone secretion. The experiment can be described thus: release of growth hormone in sodium pentobarbital-stimulated rats. It is filed as in vivo, Spraque-Dawley rats. As to conditions: subcutaneously, serum growth hormone 20 minutes after administration. As to the method:
D-Val^2, D-Trp^8 -somatostatin also was tested for its activity with respect to the release of growth hormone. The procedure which was employed is carried out using normal male Spraque-Dawley rats weighing 100-120 grams (Laboratory Supply Company, Indianapolis, Indiana). The test is a modification of the method of P. Brazeau, W. Vale, and R. Guilleman, Endocrinology, 94, 184 (1974). In this assay, five groups of eight rats each were employed. Sodium pentobarbital was administered intraperitoneally to all of the rats to stimulate growth hormone secretion. One group served as the control and received only saline. Two of the groups received somatostatin, one at 2 μg./rat, subcutaneously, and the other at 50 μg./rat, subcutaneously. The other two groups received D-Val^2, D-Trp^8 -somatostatin, one at 2 μg./rat, subcutaneously, and the other at 50 μg./rat, subcutaneously. The serum concentration of growth hormone was measured 20 minutes after simultaneous administration of sodium pentobarbital and test compound. The degree of inhibition of serum growth hormone concentration then was determined with respect to the control group, and the relative activities of D-Val^2, D-Trp^8 -somatostatin and somatostatin itself were compared. […]

Experiment [1] deals with gastric HCl secretion induced by the C-terminal tetrapeptide of gastrin. In words: in vivo inhibition of gastric acid secretion in dogs with chronic fistula and Heidenhain pouch. As to the method: D-Val^2, D-Trp^8 -somatostatin was tested in dogs for its in vivo inhibition of gastric acid secretion. In six dogs with chronic fistula and Heidenhain pouch, gastric HCl secretion was induced by infusion of the C-terminal tetrapeptide of gastrin at 0.5 μg/kg-hr. Each dog served as its own control, receiving on a separate day only the tetrapeptide. On another day, the six dogs received the tetrapeptide, and after one hour of steady state secretion of HCl, D-Val^2, D-Trp^8 -somatostatin was infused at 0.25 μg/kg-hr. for one hour. Collection of gastric acid samples was continued for an additional 1.5 hours at 15 minute intervals. The samples were titrated to pH 7 with an automatic titrator. The maximal inhibitory effect of the D-Val^2, D-Trp^8 -somatostatin was extrapolated against the dose-response curve of somatostatin, and the relative potency of the analog to that of somatostatin is expressed as percent activity. D-Val^2, D-Trp^8 -somatostatin inhibited steady state acid secretion induced by the C-terminal tetrapeptide of gastrin by 61.9 ± 3.4% standard error of mean. This effect is equivalent to that of 0.324 μg/kg-hr. of somatostatin. Its activity relative to that of somatostatin thus is 130%.

In a further experiment the test system is glucagon secretion. The experiment can be described thus: in vivo inhibition of glucagon secretion upon stimulation with insulin. Also noted: species or system mongrel dogs. As to conditions: infused at a rate of 0.109 μg/kg/min. As to the method:
D-Val^2, D-Trp^8 -somatostatin also was evaluated for in vivo activity in inhibiting glucagon secretion upon stimulation with insulin. Normal mongrel dogs of either sex were fasted overnight. After control blood samples had been obtained, an intravenous infusion of saline, somatostatin, or D-Val^2, D-Trp^8 -somatostatin was commenced. After 15 minutes, insulin, 0.3 units/kg., was injected intravenously. The infusion of saline, somatostatin, or the test compound was continued for two hours, and blood samples were obtained at various intervals throughout the test. The total dose of the somatostatin or test compound ranged from 120-260 μg./dog (0.07-0.13 μg/kg/min.). Administration of insulin produced a reduction in the blood glucose concentration of an increase in serum glucagon concentration.

Experiment [2] concerns secretion from the pancreas induced by secretin and cholecystokinin. In words: inhibition of pancreatic secretion in dogs with pancreatic and total gastric fistula. It is filed as in vivo. As to the method:
In three dogs having both pancreatic and total gastric fistula, secretion from the pancreas was induced by infusion of secretin at 2 units/kg-hr. and cholecystokinin at 0.45 unit/kg-hr., and secretion of gastric HCl by infusion of tetragastrin at 0.5 μg/kg-hr. After a steady response was established, each dog received D-Val^2, D-Trp^8 -somatostatin for one hour at 0.25 μg/kg-hr. The peak inhibitory effect expressed as percent change over control for total protein was -72%. This corresponds to the inhibitory effect obtained by administration of about 0.5 μg/kg-hr. of somatostatin.

For experiment [3], the system named is glucagon and insulin secretion. In words: in vivo inhibition of glucagon and insulin secretion upon stimulation with L-alanine. The settings on record: intravenous infusion. Also noted: species or system mongrel dogs. As to the method: D-Val^2, D-Trp^8 -somatostatin was tested for its in vivo activity in inhibiting glucagon and insulin secretion upon stimulation with L-alanine. Normal mongrel dogs of either sex were fasted overnight. Control blood samples were obtained, and then an intravenous infusion of saline, somatostatin, or D-Val^2, D-Trp^8 -somatostatin was started. After 30 minutes, L-alanine additionally was administered intravenously for a period of 15 minutes. The infusion of saline, somatostatin, or D-Val^2 D-Trp^8 -somatostatin was continued for 15 minutes after completion of the L-alanine infusion. The infusion of L-alanine caused an abrupt increase in serum concentration of glucagon and insulin which returned to control concentration upon termination of the L-alanine infusion. From the above it was determined that the minimal effective concentration of D-Val^2, D-Trp^8 -somatostatin is about 194 nanograms/kg./min. whereas the minimal effective concentration of somatostatin is 100-200 nanograms/kg./min.

Where [4] appears, read: intravenous infusion over ten minutes.

With `CC(C)[C@@H](NC(=O)[C@H](C)N)C(=O)N[C@H]1CSSC[C@@H](C(=O)O)NC(=O)[C@H](CO)NC(=O)[C@H]([C@@H](C)O)NC(=O)[C@H](Cc2ccccc2)NC(=O)[C@H]([C@@H](C)O)NC(=O)[C@H](CCCCN)NC(=O)[C@@H](Cc2c[nH]c3ccccc23)NC(=O)[C@H](Cc2ccccc2)NC(=O)[C@H](Cc2ccccc2)NC(=O)[C@H](CC(N)=O)NC(=O)[C@H](CCCCN)NC1=O` [D-Val^2, D-Trp^8 -somatostatin] (H-A[dV]CKNFF[dW]KTFTSC-OH; disulfide 3-14), the “gut motility activity compared with somatostatin” value in the experiment on gut motility (based on minimum effective dose) was “approximately equivalent to that of somatostatin itself”. For the same molecule, in the experiment on gut motility (setting [4]), the “effect on intralumenal pressure in the pylorus” value is “initially increased the intralumenal pressure in the pylorus and then decreased it”; the “effect on pressure in the duodenum and the antrum” value is reported as “remained depressed throughout the test”. For the same molecule, the “inhibition of the increase in growth hormone secretion over control” value with growth hormone secretion (2 μg./rat) came to 21%. Besides, the “inhibition of the increase in growth hormone secretion over control” value with growth hormone secretion (50 μg./rat) is on record as 88%. For the same molecule, the “dose of somatostatin of equivalent effect on gastric acid secretion” value in experiment [1] (effect of 0.25 μg/kg-hr. extrapolated against the dose-response curve of somatostatin) is recorded as 0.324 μg/kg-hr. The “activity relative to that of somatostatin (gastric acid secretion)” value in experiment [1] (relative potency expressed as percent activity) was 130%. Also, in experiment [1] (six dogs, infused at 0.25 μg/kg-hr. for one hour, maximal inhibitory effect, ± standard error of mean), the “inhibition of steady state acid secretion induced by the C-terminal tetrapeptide of gastrin” value is recorded as 61.9 ± 3.4%. In addition, the “effect on the rise in serum glucagon concentration produced by insulin hypoglycemia” value with glucagon secretion is given as “partial inhibition”. Also, the “dose of somatostatin giving the corresponding inhibitory effect on pancreatic secretion” value in experiment [2] (compared with 0.25 μg/kg-hr. of the analog) was “about 0.5 μg/kg-hr”. Also, in experiment [2] (three dogs, 0.25 μg/kg-hr. for one hour), the “peak inhibitory effect expressed as percent change over control for total protein” value was -72%. Besides, the “minimal effective concentration (inhibition of glucagon and insulin secretion)” value in experiment [3] was “about 194 nanograms/kg./min”.
